Experimental findings from ChEMBL document CHEMBL1142732, “In-depth study of tripeptide-based alpha-ketoheterocycles as inhibitors of thrombin. Effective utilization of the S1' subsite and its implications to structure-based drug design” (J Med Chem, 2005) are described below.

The target in experiment [1] is T1, Prothrombin (Homo sapiens, UniProt P00734). Nature of the experiment: Inhibition constant against human alpha thrombin.
For experiment [2], the target named is T1, Prothrombin. Nature of the experiment: Inhibitory concentration against human alpha thrombin.
Experiment [3] deals with Cavia porcellus. Nature of the experiment: Percent change in blood pressure in guinea pig at 3 mg/kg dose.
The next experiment is filed under the species Homo sapiens. Nature of the experiment: Inhibitory concentration against gel filtered platelet aggregation induced by alpha thrombin. Type of experiment: functional.
In experiment [4] the target is T2, Serine protease 1 (Bos taurus, UniProt P00760).
T2 sequence (P00760 whole entry): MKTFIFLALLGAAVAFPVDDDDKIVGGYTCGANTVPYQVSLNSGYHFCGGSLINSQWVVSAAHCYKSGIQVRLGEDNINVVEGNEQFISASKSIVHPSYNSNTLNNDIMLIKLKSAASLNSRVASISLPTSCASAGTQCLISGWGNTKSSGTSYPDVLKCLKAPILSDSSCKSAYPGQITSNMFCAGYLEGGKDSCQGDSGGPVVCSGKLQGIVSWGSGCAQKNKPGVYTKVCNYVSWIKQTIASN
Nature of the experiment: Binding affinity against bovine trypsin.

The target of experiment [5] is T1, Prothrombin. Nature of the experiment: Binding affinity determined against human alpha thrombin.
Experiment [6] has as its target T2, Serine protease 1. Nature of the experiment: Inhibitory concentration against bovine trypsin; ND=Not determined.
The target in experiment [7] is T1, Prothrombin. Nature of the experiment: Binding affinity against human alpha thrombin; SB = Slow-binding.
The target in experiment [8] is T2, Serine protease 1. Nature of the experiment: Inhibitory concentration against bovine trypsin.
For experiment [9], the species on record is Cavia porcellus. Nature of the experiment: animal or person. The conditions noted are these: Blood, iv.
Description: In vivo effective intravenous dose for eliciting a 25% decrease in blood pressure in anesthetized Guinea pig
In a further experiment the test system is Oryctolagus cuniculus. Nature of the experiment: In vivo effective intravenous dose for that was determined in Rabbit deep vein thrombosis model.
For a further experiment, the system named is Canis familiaris. Nature of the experiment: In vivo effective intravenous dose for that reduces thrombus weight accumulation on a silk fiber by 50% was determined in Dog arteriovenous shunt model. Type of experiment: functional. The conditions noted are these: Canis lupus familiaris.
The subject of experiment [10] is Cavia porcellus. Nature of the experiment: Percent change in blood pressure in guinea pig at 10 mg/kg dose.
Experiment [11] has as its target T1, Prothrombin. Nature of the experiment: Binding affinity against human alpha thrombin; […].
The target of experiment [12] is T1, Prothrombin. Nature of the experiment: Inhibitory concentration against human alpha thrombin; NA=Not active at 1 uM.
The target of experiment [13] is T2, Serine protease 1. Nature of the experiment: Binding affinity against bovine trypsin; NA=Not active at 1 uM.
Experiment [14] addresses T1, Prothrombin. Nature of the experiment: Inhibitory concentration against human alpha thrombin; NA = Not active at 1 uM.
In experiment [15] the test system is Cavia porcellus. Nature of the experiment: Percent change in blood pressure in guinea pig at 1 mg/kg dose.
In experiment [16] the target is T2, Serine protease 1. Nature of the experiment: Binding affinity against bovine trypsin; NT=Not active at 100 uM.
Experiment [17] addresses T1, Prothrombin. Nature of the experiment: Inhibitory concentration against human alpha thrombin; NT=Not active at 300 uM.

In general, Ki refers to a dissociation constant, usually derived from enzyme kinetics or from competition with a known ligand. By IC50 is commonly meant the point on the concentration scale where inhibition reaches its midpoint. The low end stands for inhibition by little substance, the high end for a need for much substance. As for `N=C(N)NCCCC(NC(=O)[C@@H]1CCCN1C(=O)CC(c1ccccc1)c1ccccc1)C(=O)c1nc2ccccc2s1` (stereo not given in full), the results for the Ki at Prothrombin [1], on Serine protease 1 [4] and at Prothrombin [5] were 3.1 nM, 22 nM and 1.1 nM, respectively. The figures for the IC50 at Prothrombin [2] and in the experiment listed under Homo sapiens were 11 nM and 29 nM, respectively. Besides, the “Delta BP” value in the experiment with Cavia porcellus [3] is recorded as -25%.
`CN[C@H](Cc1ccccc1)C(=O)N1CCC[C@H]1C(=O)N[C@H](CC(=O)c1nc2ccccc2s1)[C@H]1CC[C@H](N)CC1`: the values for the concentration for half-maximal inhibition (IC50) against Serine protease 1 [6] and against Prothrombin [2] were 58000 nM and above 100000 nM, respectively.
For `CN[C@H](Cc1ccccc1)C(=O)N1CCC[C@H]1C(=O)N[C@@](C)(CCCN=C(N)N)C(=O)c1nc2ccccc2s1`, the values for the inhibition constant Ki at Prothrombin [7] and on Serine protease 1 [4] were 430 nM and 6000 nM, respectively. On Prothrombin [2], this compound yielded an IC50 of 3700 nM.
With `N=C(N)NCCCC(NC(=O)[C@@H]1CCCN1C(=O)N[C@H](C=O)Cc1ccccc1)C(=O)c1nc2ccccc2s1` (stereo not given in full), the IC50 was found to be 5.8 nM against Serine protease 1 [8] and 17000 nM at Prothrombin [2].
In the case of `CN[C@H](Cc1ccccc1)C(=O)N1CCC[C@H]1C(=O)N[C@@H](Cc1ccc(C(=N)N)cc1)C(=O)c1nc2ccccc2s1`, the half-maximal inhibitory concentration (IC50) at Serine protease 1 [8] turned out to be 540 nM. At Prothrombin [5], this compound came in with a Ki of 1400 nM.
Broadly, the ED50 is the dose at which the effect has come halfway, by size or by number of responders. A higher ED50 goes with weaker potency. In the case of `CN[C@H](Cc1ccccc1)C(=O)N1CCC[C@H]1C(=O)NC(CCCN=C(N)N)C(=O)c1nc2ccc(C(=O)OC)cc2s1` (stereo not given in full), the ED25 in the experiment filed under Cavia porcellus [9] is 13.4 mg/kg. For the same compound, the ED50 in the experiment with Oryctolagus cuniculus was 0.35 mg/kg; with Canis familiaris, 0.47 mg/kg. Moreover, the “Delta BP” value with Cavia porcellus [10] is recorded as -16%. This compound also gave an IC50 in the experiment filed under Homo sapiens of 39 nM. This compound had a Ki at Serine protease 1 [4] of 31 nM.
`CN[C@H](Cc1ccccc1)C(=O)N1CCC[C@H]1C(=O)NC(CCCN=C(N)N)C(=O)c1nc2ccc3ccccc3c2s1` (stereo not given in full) displayed an IC50 against Prothrombin [2] of 60 nM. Also, the “Delta BP” value in the experiment on Cavia porcellus [10] is -51%. Further, the Ki came out at 15 nM at Serine protease 1 [4] and 0.58 nM on Prothrombin [5].
In the case of `CN[C@H](Cc1ccccc1)C(=O)N1CCC[C@H]1C(=O)NC(CCCN=C(N)N)C(=O)c1nc2c(s1)CCCC2` (stereo not given in full), the results for the IC50 on Prothrombin [2] and in the experiment listed under Homo sapiens were 80 nM and 22 nM, respectively. In addition, the “Delta BP” value in the experiment on Cavia porcellus [10] is -70%. The Ki on Serine protease 1 [4] was 4.4 nM; on Prothrombin [5], 3.4 nM.
`CN[C@H](Cc1ccccc1)C(=O)N1CCC[C@H]1C(=O)NC(CCCN=C(N)N)C(=O)c1nc2ccc(C(N)=O)cc2s1` (stereo not given in full): the Ki entry at Prothrombin [11] is “Slow Binding”; at Serine protease 1 [4] it was 0.3 nM.
Turning to `CN[C@H](Cc1ccccc1)C(=O)N1CCC[C@H]1C(=O)N[C@@H](CCCN=C(N)N)C(=O)c1nc2ccccc2s1`, the ED25 in the experiment filed under Cavia porcellus [9] worked out at 0.9 mg/kg. The values for the ED50 in the experiment on Oryctolagus cuniculus and in the experiment on Canis familiaris were 0.25 mg/kg and 0.46 mg/kg, respectively. In addition, affinity at Prothrombin [1] was put at a Ki of 0.18 nM. Besides, the IC50 against Prothrombin [2] came out at 29 nM; in the experiment filed under Homo sapiens it was 32 nM. The “Delta BP” value in the experiment on Cavia porcellus [3] is listed as -85%.
Compound `N=C(N)NCCCC(NC(=O)[C@@H]1CCCN1C(=O)C(O)C1c2ccccc2-c2ccccc21)C(=O)c1nc2ccccc2s1` (stereo not given in full) showed an IC50 against Prothrombin [2] of 95 nM. Besides, the “Delta BP” value in the experiment on Cavia porcellus [10] is -71%. Also, the Ki came out at 2 nM at Serine protease 1 [4] and 3.1 nM at Prothrombin [5].
`CN[C@H](Cc1ccccc1)C(=O)N1CCC[C@H]1C(=O)N[C@@H](CC(=O)c1nc2ccccc2s1)[C@H]1CC[C@H](N)CC1`: the IC50 at Serine protease 1 [6] is 22000 nM; at Prothrombin [2], above 100000 nM.
Turning to `CN[C@H](Cc1ccccc1)C(=O)N1CCC[C@H]1C(=O)N[C@@H](C(=O)c1nc2ccccc2s1)C1CCC(CN)CC1` (stereo not given in full), the results for the Ki on Serine protease 1 [4] and at Prothrombin [5] were 4000 nM and 1450 nM, respectively. Further, the IC50 result at Prothrombin [12] is recorded as “Not Active”.
Consider `CCCC[C@H](NC(=O)[C@@H]1CCCN1C(=O)[C@@H](Cc1ccccc1)NC)C(=O)c1nc2ccccc2s1`, for which, on Serine protease 1 [13], the Ki result is listed as “Not Active”.
Take `CCS(=O)(=O)N[C@H](Cc1ccccc1)C(=O)N1CCC[C@H]1C(=O)NC(CCCN=C(N)N)C(=O)c1nc2ccccc2s1` (stereo not given in full): the Ki on Prothrombin [1] was determined as 24 nM; at Serine protease 1 [4] it was 31 nM; at Prothrombin [5], 24 nM. Besides, the IC50 amounted to 500 nM at Prothrombin [2] and 46 nM in the experiment listed under Homo sapiens. For the same compound, the “Delta BP” value in the experiment with Cavia porcellus [10] is given as -36%.
As to `CN[C@H](Cc1ccccc1)C(=O)N[C@H](C(=O)NC(CCCN=C(N)N)C(=O)c1nc2ccccc2s1)C(C)C` (stereo not given in full), the results for the Ki at Prothrombin [1], on Serine protease 1 [4] and on Prothrombin [5] were 21 nM, 1.5 nM and 21 nM, respectively. For the same compound, the concentration for half-maximal inhibition (IC50) at Prothrombin [2] is 440 nM; in the experiment filed under Homo sapiens, 180 nM. Further, the “Delta BP” value in the experiment with Cavia porcellus [3] was -47%.
For `CN[C@H](Cc1ccccc1)C(=O)N1CCC[C@H]1C(=O)N[C@@H](Cc1ccccc1)C(=O)c1nc2ccccc2s1`, the Ki on Serine protease 1 [4] was determined as 12000 nM; at Prothrombin [5] it was 7100 nM. Besides, the 50% inhibitory concentration (IC50) entry against Prothrombin [12] is reported as “Not Active”.
Regarding `CN[C@@H](C(=O)N1CCC[C@H]1C(=O)NC(CCCN=C(N)N)C(=O)c1nc2ccccc2s1)C(c1ccccc1)c1ccccc1` (stereo not given in full), the IC50 against Serine protease 1 [8] came to 352 nM; at Prothrombin [2] it was 4.5 nM; in the experiment listed under Homo sapiens, 43 nM. Besides, the “Delta BP” value with Cavia porcellus [3] is listed as -54%. The Ki result on Prothrombin [11] is “Slow Binding”.
For `CNCCCC[C@H](NC(=O)[C@@H]1CCCN1C(=O)[C@@H](Cc1ccccc1)NC)C(=O)c1nc2ccccc2s1`, the IC50 result against Prothrombin [14] was “Not Active”; in the experiment listed under Homo sapiens, 5200 nM. In the experiment on Cavia porcellus [15], the “Delta BP” value was -16%. The inhibition constant (Ki) at Serine protease 1 [4] worked out at 1200 nM; at Prothrombin [5] it was 3700 nM.
With `N=C(N)NCCCCC(=O)c1nc2ccccc2s1`, the Ki result on Serine protease 1 [16] was “Not Active”. Also, on Prothrombin [17], the IC50 result is reported as “Not Active”.
In the case of `CNCCCC[C@@H](NC(=O)[C@@H]1CCCN1C(=O)[C@@H](Cc1ccccc1)NC)C(=O)c1nc2ccccc2s1`, the Ki on Serine protease 1 [4] was 1000 nM; at Prothrombin [5], 3500 nM. Also, the IC50 entry against Prothrombin [12] is on record as “Not Active”.
As for `CN[C@H](Cc1ccccc1)C(=O)N1CCC[C@H]1C(=O)N[C@@H](CCCNC(=N)N)C(=O)c1nccn1C`, the IC50 at Prothrombin [2] turned out to be 1500 nM; in the experiment listed under Homo sapiens, 230 nM. Further, in the experiment with Cavia porcellus [10], the “Delta BP” value is -68%. At Serine protease 1 [4], this compound had an inhibitory constant (Ki) of 5800 nM.
As to `CS(=O)(=O)CC[C@H](NS(=O)(=O)Cc1ccccc1)C(=O)N1CCC[C@H]1C(=O)N[C@@H](CCCNC(=N)N)C(=O)c1nc2ccccc2s1`, the IC50 against Prothrombin [2] stood at 95 nM; in the experiment listed under Homo sapiens, 37 nM. The “Delta BP” value with Cavia porcellus [10] is given as -64%. For the same compound, the values for the Ki on Serine protease 1 [4] and on Prothrombin [5] were 2.7 nM and 1.5 nM, respectively.
The matching figures for `N=C(N)NCCCC(NC(=O)[C@@H]1CCCN1C(=O)[C@@H](CC1CCCCC1)NCC(=O)O)C(=O)c1nc2ccccc2s1` (stereo not given in full): 29 nM, 16 nM, -47%, 22 nM and 0.36 nM.
As to `N=C(N)NCCC[C@H](NC(=O)CN1CCCC[C@H](NS(=O)(=O)Cc2ccccc2)C1=O)C(=O)c1nc2ccccc2s1`, the IC50 against Prothrombin [2] worked out at 270 nM; in the experiment filed under Homo sapiens, 47 nM. For the same compound, the “Delta BP” value in the experiment with Cavia porcellus [10] is recorded as -39%. The figures for the Ki at Serine protease 1 [4] and at Prothrombin [5] were 9.4 nM and 16 nM, respectively.
Consider `CN[C@H](Cc1ccccc1)C(=O)N1CCCC[C@H]1C(=O)NC(CCCN=C(N)N)C(=O)c1nc2ccccc2s1` (stereo not given in full), for which the IC50 against Prothrombin [2] was found to be 38 nM; in the experiment filed under Homo sapiens, 10 nM. The “Delta BP” value in the experiment on Cavia porcellus [3] is listed as -45%. Further, the results for the Ki on Serine protease 1 [4] and at Prothrombin [5] were 1.8 nM and 0.34 nM, respectively.
With `CN[C@H](Cc1ccccc1)C(=O)N1CCC[C@H]1C(=O)N[C@@H](CCCCN=C(N)N)C(=O)c1nc2ccccc2s1`, the figures for the IC50 against Serine protease 1 [8] and against Prothrombin [2] were 630 nM and 8400 nM, respectively.
